Laboratory results as given in article PMC7693160 (Pharmaceutics, 2020).
Values joined by “and” are separate entries in the source; they are usually repeats but may differ in a detail not shown here. Equal entries are not always repeated. Where two headings read alike, the source gives them in different places. Marks after values point to notes of the source that are not given here.

Assays:
[1] = tested on: tooth pulp-evoked potentials (TPEP) amplitude and subjective pain intensity rating; conditions: cited from earlier work; for Rmax obs: 100 mg tablet; for TRmax obs: median
[2] = tested on: CYP2C9 1*/3*
[3] = Model-based analysis of in vitro dissolution data (DLM, SIVA); assay type: physicochemical
Source text: The dissolution rate of spherical particles under sink and non-sink conditions within SIVA is described by an extension of the diffusion layer model (DLM) developed by Wang and Flanagan (Equation (3)). (3) DRt=-[…] where DRt is the dissolution rate at time t, N is the number of particles in a given particle size bin, and SDLM is a lumped correction scalar without regard to the mechanistic origin of the correction to the DLM. The SDLM estimates obtained with SIVA can be applied to the Simcyp PBPK simulator to reflect differences between media or formulations by simulating the respective in vivo dissolution; Deff is the effective diffusion coefficient; […] represent the thickness of the hydrodynamic boundary layer and the particle radius at time t, respectively; Ssurfacet corresponds to the saturation solubility at the particle surface (which may be different to the bulk fluid solubility, as discussed below); and Cbulkt is the concentration of dissolved drug in bulk solution at time t. The […] calculated by the fluid dynamics sub-model, which enables the hydrodynamic conditions to be described according to local conditions and stirring rate. Fluid dynamics-based […] recommended option for describing the hydrodynamics, as it permits a more rational translation of estimated parameters such as the SDLM to in vivo conditions, in which the hydrodynamics are usually quite different to in vitro experiments. […] Since the in vitro dissolution media have a somewhat […] buffer capacity than the intestinal fluids, the self-buffering effect at the solid surface can be underestimated. For this reason, the surface pH was calculated and directly input into SIVA. The calculation of the surface pH is based on the model first proposed by Mooney et al., which assumes that dissolution is the result of both chemical reaction between the conjugate base of the buffer species and the hydrogen cations released from the dissolving drug (in this case FLU) at the liquid-solid interface and the diffusion of the dissolved particles to the bulk. This model is very similar to the quasi-equilibrium model published by Ozturk et al., a derivative of which is implemented in SIVA as the default option for surface pH calculations. By fitting the DLM model to the observed dissolution data, we obtained SDLM estimates for each dissolution and two-stage test. In the case of two-stage testing, different SDLM values were obtained for the gastric and intestinal compartments, accounting for the changes in the respective in vitro conditions. Under fasted state intestinal conditions, FLU is freely soluble and therefore dissolution is not expected to be solubility limited. In that case, disintegration of the solid dosage form in the intestinal dissolution medium might be the rate-limiting step for the in vitro dissolution rate, especially in single dissolution experiments where the dosage form is directly exposed to the intestinal medium without any pre-treatment in a gastric medium. […] For the two-stage test experiments, the option was kept deactivated since disintegration in the stomach is already accounted for by the dissolution in the gastric medium. Both gastric and intestinal phases of the two-stage results were modelled simultaneously using the serial dilution model, which can account for more than one in vitro dissolution condition in the same experiment. Estimation of the relevant parameters was performed using the Nelder-Mead algorithm and equal weighting was applied. […]

[4] = tested on: CYP2C9 1*/1*; conditions: Recombinant CYP (fu,mic = 1), cited from earlier work
[5] = cited from earlier work
[6] = physchem; assay type: physicochemical
Source text: An experimental estimate of FLU pKa was obtained by fitting the Henderson–Hasselbalch equation (Equation (1)) to the mean aqueous equilibrium solubility (Si) values using the SIVA Toolkit version 3.0 (SIVA 3; Certara, Simcyp Division; Sheffield, UK). The lowest reported value in buffers was assumed to represent the intrinsic solubility (S0) . The pKa was then compared with values available in the literature to confirm the validity of the aqueous solubility parameter estimates. (1) Si=S0·10 ^pH−pKa The impact of bile salt concentration BS and subsequent formation of micelles on the solubility of FLU was investigated. […] Estimates of the logarithm of the micelle-water partition coefficient for the neutral Km:w,unionized and ionized drug Km:w,ionized were obtained to quantify the micelle-mediated solubility. […] Estimation of the relevant parameters was performed using the Nelder–Mead algorithm with weighting by the reciprocal of the predicted values. All estimates based on the in vitro solubility data were used as in silico input parameters for the development of the physiologically based pharmacokinetic (PBPK) model.

[7] = tested on: CYP2C9 2*/2*; conditions: Recombinant CYP (fu,mic = 1), cited from earlier work
[8] = tested on: CYP2C9; conditions: cited from earlier work
[9] = FLU po 50 mg s.d. + fluconazole po 200 mg q.d. x7, interval 2 h, CYP2C9 1*/1*, median
[10] = FLU po 50 mg s.d. + fluconazole po 200 mg q.d. x7, interval 2 h, CYP2C9 1*/3*
[11] = FLU po 50 mg s.d. + fluconazole po 200 mg q.d. x7, interval 2 h, CYP2C9 3*/3*, individual values (n=2)
[12] = FLU po 50 mg s.d. + fluconazole po 400 mg q.d. x7, interval 2 h, CYP2C9 1*/1*
[13] = FLU po 50 mg s.d. + fluconazole po 400 mg q.d. x7, interval 2 h, CYP2C9 1*/3*
[14] = FLU po 50 mg s.d. + fluconazole po 400 mg q.d. x7, interval 2 h, CYP2C9 3*/3*, individual values (n=2)
[15] = FLU po 50 mg s.d. + fluconazole po 400 mg q.d. x7, interval 2 h
[16] = FLU po 50 mg s.d. + fluconazole po 400 mg s.d., interval 2 h, ref 47
[17] = FLU po 50 mg s.d. + fluconazole po 400 mg s.d., interval 2 h, ref 48
[18] = FLU po 50 mg s.d. + rifampicin po 600 mg q.d. x5, interval 0 h, ref Daali et al.
[19] = FLU po 100 mg s.d. + fluconazole po 200 mg b.i.d. x2, interval 0.5 h, geometric mean, ref 44
[20] = FLU po 100 mg s.d. + fluconazole po 200 mg b.i.d. x2, interval 0.5 h, geometric mean, ref 45
[21] = FLU po 100 mg s.d. + fluconazole po 200 mg b.i.d. x2, interval 0.5 h, ref 46

CC(C(=O)O)c1ccc(-c2ccccc2)c(F)c1 (centres unmarked) [flurbiprofen]
Rmax obs ([1]; Pain intensity reduction): 53.1% | AUCE obs ([1]; Pain intensity reduction): 224.2 %·h | TRmax obs ([1]; Pain intensity reduction): 4.00 h | Rmax obs ([1]; TPEP amplitude reduction): 47.3% | AUCE obs ([1]; TPEP amplitude reduction): 224.2 %·h | TRmax obs ([1]; TPEP amplitude reduction): 4.00 h | CYP2C9 1*/3*-Vmax [2]: 9.55 pmol/min/pmol CYP | SDLM (95% CI) ([3]; FaSSGF Level III): 0.0218 (0.0161–0.0274) | SDLM (95% CI) ([3]; FaSSIF V3 Level I, listed as API): 0.00185 | SDLM (95% CI) ([3]; FaSSIF V3 Level I, listed as API Powder): 0.00185 (0.001–0.00312) | SDLM (95% CI) ([3]; FaSSIF V3 Level II): 0.0965 (0.0544–0.139) | SDLM (95% CI) ([3]; Ph. Eur. Phosphate Buffer): 0.00542 (0.00468–0.00617) | CYP2C9 1*/1*-Vmax [4]: 15.79 pmol/min/pmol CYP | Km ([4]; read-out: CYP2C9 1*/1*-Km): 8.76 µM | Blood/plasma ratio [5]: 0.55 | Fraction unbound in plasma [5]: 0.01 | bound to plasma proteins [5]: > 99% | pKa [6]: 4.05 | CYP2C9 2*/2*-Vmax [7]: 10.04 pmol/min/pmol CYP | Km ([7]; read-out: CYP2C9 2*/2*-Km): 10.4 µM | DDI AUC Ratio obs [8, 9]: 2.02 ^a | DDI CL/F Ratio obs [8, 9]: 0.5 ^a | DDI Cmax Ratio obs [8, 9]: 1.03 ^a | DDI AUC Ratio obs [8, 10]: 1.8 | DDI CL/F Ratio obs [8, 10]: 0.56 | DDI Cmax Ratio obs [8, 10]: 0.87 | DDI AUC Ratio obs [8, 11]: 1.58 and 1.28 | DDI CL/F Ratio obs [8, 11]: 0.75 and 0.66 | DDI Cmax Ratio obs [8, 11]: 1.08 and 0.91 | DDI AUC Ratio obs [8, 12]: 3.03 | DDI CL/F Ratio obs [8, 12]: 0.31 | DDI Cmax Ratio obs [8, 12]: 0.99 | DDI AUC Ratio obs [8, 13]: 2.48 | DDI CL/F Ratio obs [8, 13]: 0.44 | DDI Cmax Ratio obs [8, 13]: 0.94 | DDI AUC Ratio obs [8, 14]: 1.39 and 1.12 | DDI CL/F Ratio obs [8, 14]: 1.00 and 0.66 | DDI Cmax Ratio obs [8, 14]: 0.54 and 0.90 | DDI AUC Ratio obs [8, 15]: 2.81 | DDI CL/F Ratio obs [8, 15]: 0.35 | DDI Cmax Ratio obs [8, 15]: 1.37 | DDI AUC Ratio obs [8, 16]: 2.16 | DDI CL/F Ratio obs [8, 16]: 0.46 | DDI Cmax Ratio obs [8, 16]: 1.24 | DDI AUC Ratio obs [8, 17]: 1.21 | DDI CL/F Ratio obs [8, 17]: 0.67 | DDI Cmax Ratio obs [8, 17]: 1.14 | DDI AUC Ratio obs [8, 18]: 0.56 | DDI CL/F Ratio obs [8, 18]: 1.85 | DDI Cmax Ratio obs [8, 18]: 0.71 | DDI AUC Ratio obs [8, 19]: 1.97 ^b | DDI Cmax Ratio obs [8, 19]: 1.47 ^b | DDI AUC Ratio obs [8, 20]: 1.71 ^b | DDI Cmax Ratio obs [8, 20]: 1.16 ^b | DDI CL/F Ratio obs ([8]; FLU po 100 mg s.d. + fluconazole po 200 mg b.i.d. x2, interval 0.5 h, ref 44): 0.5 | DDI CL/F Ratio obs ([8]; FLU po 100 mg s.d. + fluconazole po 200 mg b.i.d. x2, interval 0.5 h, ref 45): 0.57 | DDI AUC Ratio obs [8, 21]: 1.81 | DDI CL/F Ratio obs [8, 21]: 0.55 | DDI Cmax Ratio obs [8, 21]: 1.23
